Data reported in publication PMC4642525, “Conjugates of γ-Carbolines and Phenothiazine as new selective inhibitors of butyrylcholinesterase and blockers of NMDA receptors for Alzheimer Disease” (Scientific Reports, 2015).
“Also recorded” adds a separate entry of the source. Read-outs that look alike come from different tables or passages of the source.

Columns and labels:
[1] = target: T1, butyrylcholinesterase (BChE, EC 3.1.1.8, from equine serum) (Equus caballus, UniProt P81908); assay: biochemical; type: biochemical
T1 construct: butyrylcholinesterase (BChE, EC 3.1.1.8, from equine serum); purchased Sigma-Aldrich (Germany); host or cells: equine serum
T1 sequence (P81908 whole entry): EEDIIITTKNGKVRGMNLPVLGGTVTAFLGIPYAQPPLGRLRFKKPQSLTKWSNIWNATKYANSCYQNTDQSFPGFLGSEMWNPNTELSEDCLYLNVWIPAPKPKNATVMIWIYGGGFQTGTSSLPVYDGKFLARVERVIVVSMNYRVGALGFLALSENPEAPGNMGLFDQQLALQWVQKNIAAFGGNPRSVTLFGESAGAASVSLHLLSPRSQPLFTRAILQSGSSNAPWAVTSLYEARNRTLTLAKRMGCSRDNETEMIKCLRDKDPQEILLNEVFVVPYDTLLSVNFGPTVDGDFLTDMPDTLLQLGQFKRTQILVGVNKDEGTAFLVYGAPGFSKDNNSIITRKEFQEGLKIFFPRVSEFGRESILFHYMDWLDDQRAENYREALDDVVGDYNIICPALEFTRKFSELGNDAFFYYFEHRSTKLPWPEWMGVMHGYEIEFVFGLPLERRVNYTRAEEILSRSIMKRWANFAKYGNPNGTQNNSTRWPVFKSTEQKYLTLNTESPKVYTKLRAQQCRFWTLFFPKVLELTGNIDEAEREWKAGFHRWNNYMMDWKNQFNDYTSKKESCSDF
Protocol: (§1) Acetylcholinesterase (AChE, EC 3.1.1.7, from human erythrocyte), butyrylcholinesterase (BChE, EC 3.1.1.8, from equine serum), carboxylesterase (CaE, EC 3.1.1.1, from porcine liver), acetylthiocholine iodide (ATCh), butylthiocholine iodide (BTCh), 5,5´-dithiobis-(2-nitrobenzoic acid) (DTNB), 4-nitrophenyl acetate (4-NPA), were purchased from Sigma-Aldrich (Germany).
(§2) AChE and BChE activities were measured by the method of Ellman and coworkers as described earlier. The assay solution consisted of 0.1 M K/Na phosphate buffer pH 7.5, 25 °C with the addition of 0.33 mM DTNB, 0.02 unit/mL of AChE or BChE and 1 mM of substrate (ATCh or BTCh, respectively). Assays were carried out with a blank containing all components except ATCh and BTCh in order to account for non-enzymatic reaction.
(§3) The tested compounds were dissolved in DMSO; the incubation mixture contained 2% of the solvent. […] The test compounds were added to the assay solution and preincubated at 25 °C with the enzymes for 10 min followed by the addition of substrate. A parallel control was made for the assay solution with no inhibitor. Measurements were performed in a BioRad Benchmark Plus microplate spectrophotometer (France). Each experiment was performed in triplicate. The results were expressed as the mean ± SEM. The reaction rates in the presence and absence of inhibitor were compared, and the percent of residual enzyme activity due to the presence of test compounds was calculated.

[2] = target: T2, carboxylesterase (CaE, EC 3.1.1.1, from porcine liver) (Sus scrofa, UniProt Q29550); assay: In vitro CaE inhibition (4-nitrophenyl acetate hydrolysis); type: biochemical; conditions: pH 8.0, 25 °C, 10 min preincubation, read-out: IC50 (μM) ± SEM CaE
T2 sequence (Q29550 19-566): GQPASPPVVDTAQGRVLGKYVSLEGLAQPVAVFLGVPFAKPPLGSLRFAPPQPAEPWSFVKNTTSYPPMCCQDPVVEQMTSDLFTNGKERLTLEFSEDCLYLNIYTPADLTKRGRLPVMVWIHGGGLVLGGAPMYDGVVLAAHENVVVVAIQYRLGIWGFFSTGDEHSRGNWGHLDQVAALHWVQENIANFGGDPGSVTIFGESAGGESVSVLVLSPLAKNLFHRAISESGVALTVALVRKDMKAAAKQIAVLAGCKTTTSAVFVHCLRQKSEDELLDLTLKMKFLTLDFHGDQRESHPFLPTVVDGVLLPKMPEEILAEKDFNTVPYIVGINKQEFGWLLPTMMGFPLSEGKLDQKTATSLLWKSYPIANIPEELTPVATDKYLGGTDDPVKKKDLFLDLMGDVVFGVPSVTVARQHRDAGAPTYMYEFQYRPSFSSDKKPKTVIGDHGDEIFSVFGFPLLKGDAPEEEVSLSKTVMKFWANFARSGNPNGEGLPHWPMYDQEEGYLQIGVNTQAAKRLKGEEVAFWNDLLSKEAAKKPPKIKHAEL
Protocol: as §1
The activity of CaE was determined spectrophotometrically by the release of 4-nitrophenol at 405 nm[51]. The assay solution consisted of 0.1 M K/Na phosphate buffer pH 8.0, 25 °C with the addition of 1 mM 4-nitrophenyl acetate and 0.02 unit/mL of CaE. Assays were carried out with a blank containing all components except CaE.
as §3

[3] = target: T3, МК-801 binding site of NMDA receptor (Rattus norvegicus, UniProt P35439); assay: Radioligand binding, [3H]MK-801 site of NMDA receptor, hippocampal membranes; conditions: for % of [3H]МК-801 blockade at 100 μM of compound: 100 μM compound
T3 construct: A membrane preparation of hippocampus for radioligand analysis was prepared; from tissue; host or cells: rat hippocampal membranes
Protocol: (§4) Effect of test compounds on the radioligand binding to NMDA receptors was determined by using a modified method as reported earlier by Zhou L-M and coworkers. Two radioactive ligands were used: [^3H] MK-801 (dizocilpine) with a specific activity of 210 Ci/mmol binding to all isolated NMDA receptors, and [^3H] ifenprodil with a specific activity of 79 Ci/mmol binding only to NMDA receptors containing the NR2B subunit.
(§5) A membrane preparation of hippocampus for radioligand analysis was prepared by the techniques described previously. The obtained membrane pellet was resuspended in a work buffer (5 mM HEPES/4.5 mM Tris buffer, pH 7.6) in a ratio of 1:5, and stored in liquid nitrogen. The reaction mixture (the final volume of 0.5 ml) contained 200 μl of the working buffer, 50 μl of 50 nM radioligand solution and 250 μl of the membrane suspension. Nonspecific binding was determined in the presence of 50 μl of […] of unlabeled ligand.
(§6) For binding study, the reaction mixture was incubated at room temperature for 2 hours. After incubation, the samples were filtered through the glass-fiber filters GF/B (Whatman), washed with the work buffer, dried and transferred to scintillation vials to which 5 ml of scintillation fluid was added containing 4g diphenyl oxazole (PPO), 0.2g diphenyloxazoil benzene (POPOP) and 1 liter of toluene. Radioactivity was determined in the scintillation counter TriCarb2800 TR (PerkinElmer, Packard, USA) with counting efficiency of about 65%.
(§7) Investigation of the effect of the tested compounds on the binding of [^3H]

[4] = target: T4, ifenprodil binding site of NMDA receptor (NR2B subunit containing) (Rattus norvegicus, UniProt P35439+Q00960); assay: Radioligand binding, [3H]ifenprodil site of NMDA receptor, hippocampal membranes; conditions: for % of [3H]ifenprodil blockade at 100 μM of compound: 100 μM compound
T4 construct: A membrane preparation of hippocampus for radioligand analysis was prepared; from tissue; host or cells: rat hippocampal membranes
T4 sequence (Q00960 27-1482, other chains not shown): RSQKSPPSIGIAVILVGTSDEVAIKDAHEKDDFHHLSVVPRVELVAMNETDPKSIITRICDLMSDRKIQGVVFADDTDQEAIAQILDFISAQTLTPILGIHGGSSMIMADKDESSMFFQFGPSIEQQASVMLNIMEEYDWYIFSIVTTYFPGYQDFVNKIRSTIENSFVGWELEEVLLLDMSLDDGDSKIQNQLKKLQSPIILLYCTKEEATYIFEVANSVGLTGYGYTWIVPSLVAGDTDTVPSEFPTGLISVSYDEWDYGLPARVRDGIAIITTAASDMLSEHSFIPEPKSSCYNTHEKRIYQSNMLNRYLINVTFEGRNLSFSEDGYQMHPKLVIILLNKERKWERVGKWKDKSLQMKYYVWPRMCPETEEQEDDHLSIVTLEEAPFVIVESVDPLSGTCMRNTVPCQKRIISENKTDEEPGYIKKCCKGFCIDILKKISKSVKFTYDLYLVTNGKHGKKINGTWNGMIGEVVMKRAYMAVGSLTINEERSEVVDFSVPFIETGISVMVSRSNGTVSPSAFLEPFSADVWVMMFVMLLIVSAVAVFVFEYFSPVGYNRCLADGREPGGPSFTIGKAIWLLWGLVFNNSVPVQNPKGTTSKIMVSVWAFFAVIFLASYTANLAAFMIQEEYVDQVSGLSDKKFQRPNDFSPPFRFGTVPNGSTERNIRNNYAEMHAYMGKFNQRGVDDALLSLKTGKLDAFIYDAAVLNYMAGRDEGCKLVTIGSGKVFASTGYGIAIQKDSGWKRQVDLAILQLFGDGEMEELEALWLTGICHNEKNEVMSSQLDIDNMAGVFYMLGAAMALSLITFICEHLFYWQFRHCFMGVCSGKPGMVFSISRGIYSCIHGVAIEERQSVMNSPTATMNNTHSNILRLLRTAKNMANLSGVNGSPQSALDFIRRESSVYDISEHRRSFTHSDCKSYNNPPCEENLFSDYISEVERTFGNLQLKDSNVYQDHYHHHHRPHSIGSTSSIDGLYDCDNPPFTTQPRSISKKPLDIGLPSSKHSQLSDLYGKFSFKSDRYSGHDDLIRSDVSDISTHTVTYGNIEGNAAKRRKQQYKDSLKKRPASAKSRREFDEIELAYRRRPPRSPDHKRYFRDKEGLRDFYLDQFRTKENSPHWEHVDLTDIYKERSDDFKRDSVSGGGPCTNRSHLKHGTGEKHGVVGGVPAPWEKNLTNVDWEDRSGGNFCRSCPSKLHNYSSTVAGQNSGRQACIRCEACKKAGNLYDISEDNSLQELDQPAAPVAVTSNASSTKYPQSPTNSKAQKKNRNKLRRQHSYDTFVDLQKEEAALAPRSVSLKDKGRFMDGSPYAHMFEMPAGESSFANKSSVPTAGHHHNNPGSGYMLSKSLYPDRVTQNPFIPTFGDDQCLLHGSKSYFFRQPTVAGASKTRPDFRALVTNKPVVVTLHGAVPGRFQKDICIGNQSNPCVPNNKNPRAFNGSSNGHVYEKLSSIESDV
Protocol: as §4, §5, §6, §7

[5] = target: T1, butyrylcholinesterase (BChE, EC 3.1.1.8, from equine serum); assay: biochemical; type: biochemical; conditions: for αKi (non-competitive inhibition constant) / Ki: BChE, means ± SEM, at least three experiments; for Ki: read-out: Ki (competitive inhibition constant); for type of BChE inhibition: Lineweaver-Burk analysis
Protocol: The test compounds were preincubated with the enzymes at 25 °C for 10 min, followed by the addition of the substrates. Parallel controls were made for an assay of the rate of hydrolysis of the same concentrations of substrates in the solutions with no inhibitor. The kinetic parameters of substrate hydrolysis were determined. Measurements were performed in a BioRad Benchmark Plus microplate spectrophotometer (France). Each experiment was performed in triplicate.

[6] = target: T5, Acetylcholinesterase (AChE, EC 3.1.1.7, from human erythrocyte) (Homo sapiens, UniProt P22303); assay: biochemical; type: biochemical
T5 construct: Acetylcholinesterase (AChE, EC 3.1.1.7, from human erythrocyte); purchased Sigma-Aldrich (Germany); host or cells: human erythrocytes
T5 sequence (P22303 other isoform, or with tags, fused parts or gaps): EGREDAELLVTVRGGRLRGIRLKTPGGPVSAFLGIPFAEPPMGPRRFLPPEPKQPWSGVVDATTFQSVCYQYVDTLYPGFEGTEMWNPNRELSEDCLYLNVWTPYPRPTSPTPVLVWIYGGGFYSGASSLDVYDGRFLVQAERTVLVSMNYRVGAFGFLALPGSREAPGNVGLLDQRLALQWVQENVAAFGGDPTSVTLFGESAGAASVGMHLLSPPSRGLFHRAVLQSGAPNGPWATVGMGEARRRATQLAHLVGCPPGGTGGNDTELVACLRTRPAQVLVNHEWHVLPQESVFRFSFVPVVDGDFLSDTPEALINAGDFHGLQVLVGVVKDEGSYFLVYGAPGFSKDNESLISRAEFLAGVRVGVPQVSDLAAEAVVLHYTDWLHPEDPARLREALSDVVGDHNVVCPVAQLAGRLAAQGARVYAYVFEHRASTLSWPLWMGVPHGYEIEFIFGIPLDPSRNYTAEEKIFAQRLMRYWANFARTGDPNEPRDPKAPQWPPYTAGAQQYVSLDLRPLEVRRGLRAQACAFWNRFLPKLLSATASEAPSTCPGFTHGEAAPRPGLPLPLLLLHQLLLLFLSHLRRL
Protocol: as §1, §2, §3

[7] = equine serum BChE, pH 7.5, 25 °C, 10 min preincubation, read-out: IC50 (μM) ± SEM BChE
[8] = rat hippocampal membranes, read-out: [3H]МК-801, IC50
[9] = rat hippocampal membranes, read-out: [3H]ifenprodil, IC50
[10] = human erythrocyte AChE, pH 7.5, 25 °C, 10 min preincubation, read-out: IC50 (μM) ± SEM AChE

| Compound | IC50 [1, 7] [µM] | IC50 [2] [µM] | IC50 [3, 8] [µM] | % of [3H]ifenprodil blockade at 100 μM of compound ([4]; rat hippocampal membranes) [%] | IC50 [4, 9] [µM] | αKi (non-competitive inhibition constant) [5] [µM] | Ki [5] [µM] | type of BChE inhibition [5] | % of [3H]МК-801 blockade at 100 μM of compound ([3]; rat hippocampal membranes) [%] | IC50 [6, 10] [µM] | times higher BChE inhibitory activity versus (C-2b) ([1]; comparison of IC50 values, 1-oxopropylene vs 2-hydroxypropylene spacer, same R1, R2) [times] | IC50 [3] [µM] | IC50 [4] [µM] | IC50 ([3]; read-out: [3H]МК-801, IC50, rat hippocampal membranes) [µM] | IC50 ([4]; read-out: [3H]ifenprodil, IC50, rat hippocampal membranes) [µM] | IC50 [6] [µM] | IC50 [1] [µM] |
| --- | --- | --- | --- | --- | --- | --- | --- | --- | --- | --- | --- | --- | --- | --- | --- | --- | --- |
| Cc1ccc2c(c1)c1c(n2CC(O)CN2c3ccccc3Sc3ccccc32)CCN(C)C1 (racemic) [C-2a] | 11.7 ± 0.4 | > 200 | 84.8 ± 9.2 | 69.7 ± 8.3 | 57.2 ± 6.7 | – | – | – | – | – | – | – | – | – | – | – | – |
| CCN1CCc2c(c3cc(F)ccc3n2CC(O)CN2c3ccccc3Sc3ccccc32)C1 (racemic) [C-2b] | 2.01 ± 0.04 | > 200 | 106 ± 9.2 | 25.7 ± 4.6 | 81.2 ± 6.7 | 2.98 ± 0.19 | 0.82 ± 0.02 | mixed-type inhibition; also recorded: mixed-type reversible inhibitors | 24.1 ± 1.9 | – | – | – | – | – | – | – | – |
| O=[N+]([O-])c1ccc(OP(=O)(O)Oc2ccc([N+](=O)[O-])cc2)cc1 [BNPP, Bis-4-nitrophenyl phosphate, reference compound] | – | 1.8 ± 0.11 | – | – | – | – | – | – | – | – | – | – | – | – | – | – | – |
| Cc1ccc2c(c1)c1c(n2CCC(=O)N2c3ccccc3Sc3ccccc32)CCN(C)C1 [C-1a] | 62.6 ± 4.3 | > 200 | 13.5 ± 3.6 | 42.6 ± 7.2 | 88.4 ± 8.3 | – | – | – | 80.4 ± 6.6 | > 200 | – | – | – | – | – | – | – |
| CCN1CCc2c(c3cc(C)ccc3n2CCC(=O)N2c3ccccc3Sc3ccccc32)C1 [C-1b] | 2.04 ± 0.55 | > 200 | 8.5 ± 0.8 | 48.1 ± 5.9 | 74.4 ± 4 | 1.46 ± 0.40 | 0.43 ± 0.05 | – | 95.7 ± 1.0 | > 200 | – | – | – | – | – | – | – |
| CN1CCc2c(c3cc(F)ccc3n2CCC(=O)N2c3ccccc3Sc3ccccc32)C1 [C-1c] | 1.79 ± 0.28 | > 200 | 17.7 ± 2.6 | 50.2 ± 5.2 | 55.1 ± 5.8 | 1.27 ± 0.41 | 0.48 ± 0.06 | – | 78.7 ± 1.4 | > 200 | – | – | – | – | – | – | – |
| CN1CCc2c(c3ccccc3n2CCC(=O)N2c3ccccc3Sc3ccccc32)C1 [C-1d] | 1.07 ± 0.12 | > 200 | 18.5 ± 0.9 | 60.1 ± 1.4 | 23.4 ± 0.7 | 1.64 ± 0.20 | 0.37 ± 0.01 | – | 74.9 ± 1.1 | > 200 | – | – | – | – | – | – | – |
| CCN1CCc2c(c3ccccc3n2CCC(=O)N2c3ccccc3Sc3ccccc32)C1 [C-1e] | 0.52 ± 0.01 | > 200 | 14.6 ± 1.9 | 69.4 ± 3.3 | 13.4 ± 2.6 | 0.65 ± 0.07 | 0.26 ± 0.02 | – | 76.1 ± 1.2 | > 200 | – | – | – | – | – | – | – |
| CCN1CCc2c(c3cc(F)ccc3n2CCC(=O)N2c3ccccc3Sc3ccccc32)C1 [C-1f] | 0.58 ± 0.06 | – | – | 78.2 ± 6.8 | – | 0.52 ± 0.04 | 0.17 ± 0.02 | mixed-type inhibition; also recorded: mixed-type reversible inhibitors | 82.4 ± 7.3 | > 200 | 3.5 | 15.8 ± 1.8 | 8.8 ± 1.8 | – | – | – | – |
| COc1ccc2c(c1)c1c(n2C[C@@H](O)CN2c3ccccc3Sc3ccccc32)CCN(C)C1 [C-2c] | 0.39 ± 0.02 | – | – | 47.4 ± 6.6 | – | 0.89 ± 0.18 | 0.25 ± 0.04 | – | 19.1 ± 2.2 | – | – | – | – | 113 ± 11.1 | 115 ± 9.3 | – | – |
| CN(C)c1ccc2nc3ccc(=[N+](C)C)cc-3sc2c1 [MB, methylene blue, reference compound] | – | – | – | – | – | 0.64 ± 0.02 | – | – | 2.0 ± 4.0 | – | – | – | – | – | – | – | – |
| Cc1ccc2c(c1)c1c(n2CCc2ccc(C)nc2)CCN(C)C1 [dimebon, reference compound] | – | – | 91.5 ± 7.7 | 34.1 ± 4.9 | 82.4 ± 4.1 | – | – | – | 27.8 ± 3.9 | – | – | – | – | – | – | 36.3 ± 5.8 | 5.76 ± 0.51 |
| c1ccc2c(c1)Nc1ccccc1S2 [phenothiazine] | – | – | – | – | – | – | – | – | – | – | – | – | – | – | – | – | 137 ± 31 |
